Data on six compounds can be found in patent publication US4532367A, “Antimicrobially effective derivatives of phenol and methods for their production” (VEB Jenapharm, priority 1981, dated 1985).

Series [1] is described as follows: Acute toxicity in white mice with subcutaneous application. The following applies: mouse, in vivo, sc. The source says:
*The toxicity in mg/kg body weight is understood as acute toxicity in
white mice with subcutaneous application.

For another series, the system named is antimicrobial. The following applies: known compound, background statement; cited from earlier work.
The conditions of series [2]: known compound, background statement; cited from earlier work.
For series [3] the following is noted: known compound, background statement; cited from earlier work. This is another data set of the same source.
In another series the test system is Gram-Positive Bacteria. In words: Effectiveness against gram-positive bacteria (general statement). The series is classed as cell-based. The following applies: in words.
A short description of a further series: Solubility in water. The following applies: in words. In kind it is physicochemical.
A further series can be described thus: Stability. In kind it is physicochemical. The following applies: in words.

SMILES strings stand for the structures. Counter-ions that a name gives are not always drawn.

Take `CCc1cc(Cc2ccccc2)cc(Br)c1O` [2-bromo-6-ethyl-4-benzylphenol, 6-bromo-2-ethyl-4-benzylphenol]: the 50% lethal dose (LD50) – broadly, the dose expected to kill half of the subjects tested – in series [1] was found to be 2800 mg/kg. Same read-out and setting: next, `Cc1cc(Cc2ccccc2)cc(Br)c1O` [2-bromo-6-methyl-4-benzylphenol, 6-bromo-2-methyl-4-benzylphenol]: 1500 mg/kg. In series [1], `Cc1cc(Cc2ccccc2)cc(Cl)c1O` [2-chloro-6-methyl-4-benzylphenol] came in with a 50% lethal dose (LD50) of 1200 mg/kg. Moreover, the antimicrobial efficacy entry in the series on antimicrobial is “generally good antimicrobial efficacy”. Further, the skin compatibility result in series [2] is “well skin-compatible”. Also, the water-solubility entry in series [3] is recorded as “difficult water-solubility”. As for `Cc1cc(Cc2ccccc2)cc(Cl)c1O` [calcium salt of 2-chloro-6-methyl-4-benzylphenol] [calcium salt of 6-chloro-2-methyl-4-benzylphenol], in the series on Gram-Positive Bacteria, the “effectiveness against gram-positive bacteria” value is recorded as “particularly effective”. Moreover, in the series “Solubility in water”, the solubility in water result is reported as “only little soluble in water”. For the same compound, the stability entry in the series “Stability” is on record as “very stable”. `Cc1cc(Cc2ccccc2)cc(Cl)c1O` [potassium salt of 6-chloro-2-methyl-4-benzylphenol]: the solubility in water result in “Solubility in water” was “good”. The same measure, in the same setting: next, `Cc1cc(Cc2ccccc2)cc(Cl)c1O` [sodium salt of 6-chloro-2-methyl-4-benzylphenol]: “well water-soluble”.
